According to article PMC11790949, “A multiplex method for rapidly identifying viral protease inhibitors” (Molecular Systems Biology, 2025):
Values joined by “and” are separate entries in the source; they are usually repeats but may differ in a detail not shown here. Identical values can stand only once.

What was measured:
SARS-CoV-2 3CL protease [1] = biological target: T1, SARS-CoV-2 3CL protease (Severe acute respiratory syndrome coronavirus 2, UniProt P0DTD1); test: Biochemical inhibition of peptide cleavage by purified SARS-CoV-2 3CL protease (fluorogenic)
SARS-CoV-2 3CL protease [2] = biological target: T1, SARS-CoV-2 3CL protease; test: Mass spectrometry (MALDI-TOF) analysis of protein-inhibitor complex; assay type: binding; settings: 50 μM protease, 500 μM inhibitor, 1 h at 4 °C
Description: For MALDI-TOF MS analysis, 1 µL of the protein-inhibitor complex (3CL protease only and 3CL protease-CB6778425) was mixed with 9 µL of 10 mg/mL sinapinic acid in the matrix solution (70:30 water/acetonitrile, with 0.1% TFA). About 1.0 µL of the final mix was deposited onto the target carrier and allowed to air dry. MALDI spectra of the protein-inhibitor complex were compared with ligand-free 3CL protease to determine the mass shift. MALDI spectra were collected with the software flexControl, while MALDI data were analyzed by flexAnalysis.

[3] = read-out: SARS-CoV-2 3CL Inhibition (%)

CCc1cc(=O)oc2cc(OC(=O)c3ccco3)ccc12 [CB6728297]
IC50 (SARS-CoV-2 3CL protease [1]): 0.245 µM
shift of IC50 upon pre-incubation with SARS-CoV-2 3CL (SARS-CoV-2 3CL protease [1]): shifts to lower IC50s
inhibition at 0.0976563 µM (SARS-CoV-2 3CL protease [1]; [3]): 9.07%
inhibition at 0.19382 µM (SARS-CoV-2 3CL protease [1]; [3]): 94.7% and 89.2%
inhibition at 0.195313 µM (SARS-CoV-2 3CL protease [1]; [3]): 39.5%
inhibition at 0.390625 µM (SARS-CoV-2 3CL protease [1]; [3]): 64.9%
inhibition at 0.49485 µM (SARS-CoV-2 3CL protease [1]; [3]): 88.9%
inhibition at 0.78125 µM (SARS-CoV-2 3CL protease [1]; [3]): 90.8%
inhibition at 0.79588 µM (SARS-CoV-2 3CL protease [1]; [3]): 93.8%
inhibition at 1.09691 µM (SARS-CoV-2 3CL protease [1]; [3]): 98.7%
inhibition at 1.39794 µM (SARS-CoV-2 3CL protease [1]; [3]): 93.4%
inhibition at 1.69897 µM (SARS-CoV-2 3CL protease [1]; [3]): 95.6%
inhibition at 2 µM (SARS-CoV-2 3CL protease [1]; [3]): 88.8%
inhibition at 2.30103 µM (SARS-CoV-2 3CL protease [1]; [3]): 99.1%

O=C(Oc1ccc2ccc(=O)oc2c1)c1cccs1 [CB6762077]
IC50 (SARS-CoV-2 3CL protease [1]): 1.1 µM
shift of IC50 upon pre-incubation with SARS-CoV-2 3CL (SARS-CoV-2 3CL protease [1]): shifts to lower IC50s
inhibition at 0.19382 µM (SARS-CoV-2 3CL protease [1]; [3]): 71.8%
inhibition at 0.390625 µM (SARS-CoV-2 3CL protease [1]; [3]): 12.9%
inhibition at 0.49485 µM (SARS-CoV-2 3CL protease [1]; [3]): 77.7%
inhibition at 0.78125 µM (SARS-CoV-2 3CL protease [1]; [3]): 30.2%
inhibition at 0.79588 µM (SARS-CoV-2 3CL protease [1]; [3]): 75.9%
inhibition at 1.09691 µM (SARS-CoV-2 3CL protease [1]; [3]): 90.1%
inhibition at 1.39794 µM (SARS-CoV-2 3CL protease [1]; [3]): 88.9%
inhibition at 1.69897 µM (SARS-CoV-2 3CL protease [1]; [3]): 94.3%
inhibition at 2 µM (SARS-CoV-2 3CL protease [1]; [3]): 112%

O=C(Oc1ccc2ccc(=O)oc2c1)c1ccco1 [CB6778425]
mass shift in the protease-inhibitor complex (SARS-CoV-2 3CL protease [2]): ~ 95 Da
inhibition at 0.000762939 µM (SARS-CoV-2 3CL protease [1]; [3]): 0.215%
inhibition at 0.00152588 µM (SARS-CoV-2 3CL protease [1]; [3]): 4.28%
inhibition at 0.0244141 µM (SARS-CoV-2 3CL protease [1]; [3]): 19.7%
inhibition at 0.0488281 µM (SARS-CoV-2 3CL protease [1]; [3]): 39.2%
inhibition at 0.0976563 µM (SARS-CoV-2 3CL protease [1]; [3]): 62.7%
inhibition at 0.19382 µM (SARS-CoV-2 3CL protease [1]; [3]): 104%
inhibition at 0.195313 µM (SARS-CoV-2 3CL protease [1]; [3]): 85.1%
inhibition at 0.390625 µM (SARS-CoV-2 3CL protease [1]; [3]): 94.5%
inhibition at 0.49485 µM (SARS-CoV-2 3CL protease [1]; [3]): 102%
inhibition at 0.78125 µM (SARS-CoV-2 3CL protease [1]; [3]): 98.7%
inhibition at 0.79588 µM (SARS-CoV-2 3CL protease [1]; [3]): 95%
inhibition at 1.09691 µM (SARS-CoV-2 3CL protease [1]; [3]): 96.4%
inhibition at 1.39794 µM (SARS-CoV-2 3CL protease [1]; [3]): 103%
inhibition at 1.69897 µM (SARS-CoV-2 3CL protease [1]; [3]): 98%
inhibition at 2 µM (SARS-CoV-2 3CL protease [1]; [3]): 95%
inhibition at 2.30103 µM (SARS-CoV-2 3CL protease [1]; [3]): 90.6%
inhibition at […] (SARS-CoV-2 3CL protease [1]; [3]): 11.4%
